Assay results from patent EP2650000A1, “Utilization of copper complexes involving 2-phenyl-3-hydroxy-4(1H)-quinolinone and 1,10-phenanthroline derivatives for the preparation of drugs for the treatment of tumour diseases” (Univerzita Palackeho, priority 2012, dated 2013).

Legend:
Assay type in all cases: cell-based
[1] = system: human lung adenocarcinoma cell line (A549); assay: MTT assay, in vitro anticancer activity, A549; conditions: A549 cells, 24 hours incubation, read-out: inhibition concentrations IC50
Procedure: (§1) The in vitro anticancer activity of the prepared complexes listed as the examples below was determined by the MTT assay. The method is based on the ability of metabolic-active cells to reduce (by mitochondrial dehydrogenases) the yellow tetrazolium dye (3-(4,5-dimethylthiazol-2-yl)-2,5-diphenyltetrazolium bromide (MTT)) to the blue formazane end-product. Because the reduction proceeds only in the living cells, the cytotoxicity of various compounds can be determined using this process. The water-insoluble formazane is quantified after dissolving in dimethyl sulfoxide (DMSO) with the solution of ammonia on a spectrophotometer (ELISA reader). The in vitro anticancer activity testing was performed on the following human cancer cell lines: lung adenocarcinoma (A549), cervix epitheloid carcinoma (HeLa), malignant melanoma (G361), ovarian carcinoma (A2780), cisplatin-resistant ovarian carcinoma (A2780R) and prostate carcinoma (LNCaP). The cell lines were maintained in plastic vessels in the DMEM medium (5 g/l glucose, 2 mM glutamine, 100 U/mL penicillin, 100 µg/mL streptomycin, 10% foetal calf serum and sodium bicarbonate) for cell cultures. The 80 µL of cell suspensions (ca. 1.25 × 10^5 cells per mL) were pipetted onto 96-well plastic microtitration plates. These were further pre-incubated at 37 °C in the CO2 atmosphere for 24 hours. The tested copper complexes and cisplatin, used as positive and therapeutic standard, were dissolved in N,N'-dimetylformamide in the concentrations up to 50 mM which served as stock solutions. For the experiment, the stock solutions were diluted 1000 x in the incubation medium (maximum concentration of 50.0 µM). After removal of the cultivation media, the mixtures of appropriate concentration were added to the cancer cells for the incubation period of 24 hours. The MTT analysis was performed spectrophotometrically (TECAN, Schoeller Instruments LLC) at 540 nm.
(§2) The concentrations of the tested complexes (µM) toxic for 50% of cancer cells (inhibition concentration IC50) were calculated from the dose-response curves.
The determination of in vitro anticancer activity of the studied compounds 1-6 and cisplatin against human lung adenocarcinoma cell line (A549) was performed by the MTT assay.

[2] = system: human malignant melanoma cancer cell line (G361); assay: MTT assay, in vitro anticancer activity, G361; conditions: G361 cells, 24 hours incubation, read-out: inhibition concentrations IC50
Procedure: as §1, with “The 80 µL of cell suspensions (ca. 1.25 × 10^5 cells per mL) were pipetted onto 96-well plastic microtitration plates.” left out

[3] = system: human cervix epitheloid carcinoma cell line (HeLa); assay: MTT assay, in vitro anticancer activity, HeLa; conditions: HeLa cells, 24 hours incubation, read-out: inhibition concentrations IC50
Procedure: as §1, §2
The determination of in vitro anticancer activity of the studied compounds 1-6 and cisplatin against human cervix epitheloid carcinoma cell line (HeLa) was performed by the MTT assay.

[4] = system: human ovarian carcinoma cell line (A2780); assay: MTT assay, in vitro anticancer activity, A2780; conditions: A2780 cells, 24 hours incubation, read-out: inhibition concentrations IC50
Procedure: as §1, §2
The determination of in vitro anticancer activity of the studied compounds 1-6 and cisplatin against human ovarian carcinoma cell line (A2780) was performed by the MTT assay.

[5] = system: human cisplatin-resistant ovarian carcinoma cell line (A2780R); assay: MTT assay, in vitro anticancer activity, A2780R; conditions: A2780R cells, 24 hours incubation, read-out: inhibition concentrations IC50
Procedure: as §1, §2
The determination of in vitro anticancer activity of the studied compounds 1-6 and cisplatin against human cisplatin-resistant ovarian carcinoma cell line (A2780R) was performed by the MTT assay.

[6] = system: human prostate carcinoma cell line (LNCaP); assay: MTT assay, in vitro anticancer activity, LNCaP; conditions: LNCaP cells, 24 hours incubation, read-out: inhibition concentrations IC50
Procedure: as §1, §2
The determination of in vitro anticancer activity of the studied compounds 1-6 and cisplatin against human prostate carcinoma cell line (LNCaP) was performed by the MTT assay.

SMILES | IC50 [1] | IC50 [2] | IC50 [3] | IC50 [4] | IC50 [5] | IC50 [6]
F[B-](F)(F)F.O=c1c([O-])c(-c2ccccc2)[nH]c2ccccc12.[Cu+2].c1ccc(-c2ccnc3c2ccc2c(-c4ccccc4)ccnc23)cc1 [complex 6, (2-phenyl-4-oxo-1,4-dihydroquinolin-3-olato-κ^2O^3:O^4) (4,7-diphenyl-1,10-phenanthroline-κ^2N^1:N^10) copper(II) tetrafluoroborate] | 1.3 ± 0.4 µM | 0.72 ± 0.06 µM | 1.3 ± 0.4 µM | 0.57 ± 0.11 µM | 0.7 ± 0.2 µM | 0.62 ± 0.08 µM
N.N.[Cl][Pt][Cl] [cisplatin, cis-diammine-dichlorido platinum(II) complex, reference compound] | 25.8 ± 7.1 µM | 3.4 ± 0.1 µM | 10 ± 2.6 µM | 12 ± 0.8 µM | 27 ± 4.6 µM | 3.8 ± 1.5 µM
O=[N+]([O-])[O-].O=c1c([O-])c(-c2ccccc2)[nH]c2ccccc12.[Cu+2].c1ccc(-c2ccnc3c2ccc2c(-c4ccccc4)ccnc23)cc1 [complex 3, (2-phenyl-4-oxo-1,4-dihydroquinolin-3-olato-κ^2O^3:O^4)(4,7-diphenyl-1,10-phenanthroline-κ^2N^1:N^10)copper(II) nitrate monohydrate] | 1.7 ± 0.3 µM | 0.96 ± 0.03 µM | 1 ± 0.2 µM | 0.66 ± 0.07 µM | 0.73 ± 0.09 µM | 0.74 ± 0.21 µM
Cc1cc2cccnc2c2ncccc12.F[B-](F)(F)F.O=c1c([O-])c(-c2ccccc2)[nH]c2ccccc12.[Cu+2] [complex 5, (2-phenyl-4-oxo-1,4-dihydroquinolin-3-olato-K^2O^3:O^4)(5-methyl-1,10-phenanthroline-κ^2N^1:N^10)copper(II) tetrafluoroborate monohydrate] | 2.5 ± 0.6 µM | 0.53 ± 0.09 µM | 2.4 ± 1 µM | 0.36 ± 0.05 µM | 0.56 ± 0.15 µM | 1.5 ± 0.6 µM
O=[N+]([O-])[O-].O=c1c([O-])c(-c2ccccc2)[nH]c2ccccc12.[Cu+2].c1cnc2c(c1)ccc1cccnc12 [complex 1, (2-phenyl-4-oxo-1,4-dihydroquinolin-3-olato-κ^2O^3:O^4)(1,10-phenanthroline-κ^2N^1:N^10)copper(II) nitrate monohydrate] | 2.5 ± 0.4 µM | 0.82 ± 0.15 µM | 2.9 ± 0.3 µM | 0.65 ± 0.28 µM | 0.83 ± 0.3 µM | 2.4 ± 0.6 µM
Cc1cc2cccnc2c2ncccc12.O=[N+]([O-])[O-].O=c1c([O-])c(-c2ccccc2)[nH]c2ccccc12.[Cu+2] [complex 2, (2-phenyl-4-oxo-1,4-dihydroquinolin-3-olato-κ^2O^3:O^4)(5-methyl-1,10-phenanthroline-κ^2N^1:N^10)copper(II) nitrate monohydrate] | 2.5 ± 0.6 µM | 0.53 ± 0.22 µM | 2.6 ± 0.4 µM | 0.38 ± 0.03 µM | 0.78 ± 0.07 µM | 2.1 ± 0.6 µM
F[B-](F)(F)F.O=c1c([O-])c(-c2ccccc2)[nH]c2ccccc12.[Cu+2].c1cnc2c(c1)ccc1cccnc12 [complex 4, (2-phenyl-4-oxo-1,4-dihydroquinolin-3-olato-κ^2O^3:O^4) (1,10-phenanthroline-κ^2N^1:N^10)copper(II) tetrafluoroborate] | 3.9 ± 1.2 µM | 0.64 ± 0.2 µM | 2.7 ± 0.6 µM | 0.52 ± 0.1 µM | 1.7 ± 0.6 µM | 1.9 ± 0.6 µM
